This is an account of results in patent publication US5563149A, “Aqueous solutions of pyridone carboxylic acids” (Cheil Foods & Chemicals, Inc., priority 1994, dated 1996).

The conditions of data set [1]: with asparagine, glutamic acid or gluconic acid; Korean Patent Application Publication No. 89-2040; cited from earlier work.
In data set [2] the test system is gram-negative and gram-positive bacteria. Kind of data set: in vitro antibacterial activity (gram-negative and gram-positive bacteria). In kind it is cell-based.
The nature of data set [3]: solubility in water (without solubilizing agent). It is filed as physicochemical. The note with it: no acid added.
Data set [4] is described as follows: bioavailability and half-life. In kind it is in vivo. The conditions noted are these: compared with quinolone drugs commercially available or in development.
Data set [5] can be described thus: Solubility of compound A in water with added acid or amino acid, and pH of the saturated solution. In kind it is physicochemical. The conditions noted are these: for solubility at 4 h: water, per ml of water. As for the experimental part: The organic acids suitable as solubilizing agents are chosen depending on the correlationship between the organic acid and the physical properties of the selected quinolone compound. Therefore, a varity of organic acids and amino acids were evaluated to determine whether certain acids are suitable as solubilizing agents capable of increasing the water solubility of compound A and the pH of the aqueous solution is suitable for injection and/or infusion solutions.
Exemplary active substance in practicing the present invention is compound A. The test method of the solubility is set forth as follows:
Compound A was mixed with an organic acid or an amino acid in the mole ratios between 0.5 and 6 before water was added with reflux. Then, the resulting solution was rigorously shaken with stirring for 5 minutes so that it was made homogeneous. After the homogenous solution was left to stand at elevated temperature for 4 hours, it was extracted through 0.45 micro of membrane filter. The amounts of active substances present in extracts were quantified by high pressure liquid chromatography.

Molecules are shown by their SMILES. ≈ marks a conversion by molar mass, not a printed value.

With `CCn1cc(C(=O)O)c(=O)c2cc(F)c(N3CCNCC3)nc21` [Enoxacin], the deposits in solutions entry in data set [1] was “do not lead to deposits”.

What is called solubility is how much of the substance goes into solution per volume. With `C[C@]12C[C@@H](N)[C@H]1CN(c1nc3c(cc1F)c(=O)c(C(=O)O)cn3C1CC1)C2` (relative stereo) [compound A, 1-cyclopropyl-6-fluoro-l,4-dihydro-4-oxo-7-([1α, 5α,6β]6-amino-1-methyl-3-azabicyclo[3.2.0]heptan-3-yl)-1,8-naphtyridine-3-carboxylic acid], in data set [2], the “antibacterial activities compared with Lomefloxacin and Ofloxacin” value was “superior”. The solubility in water result in data set [3] is listed as “not substantially soluble or little soluble in water”. Besides, in data set [4], the bioavailability entry was “better”. Moreover, the half-life entry in data set [4] was “better”. The “pH of saturated solution” value is 6.4 in data set [5] (compound A with Alanine); 10.0 in data set [5] (compound A with Arginine); 6.2 in data set [5] (compound A with Asparagine); 5.3 in data set [5] (compound A with Aspartic acid); 1.8 in data set [5] (compound A with Cinnamic acid); 3.3 in data set [5] (compound A with Galacturonic (acid)). For the same compound, the “pH of saturated solution” value in data set [5] (compound A with Gluconic acid) is given as 3.3; in data set [5] (compound A with Gluconic acid lactone), 3.6; in data set [5] (compound A with Glutamine), 6.4; in data set [5] (compound A with Glutaric acid), 3.8; in data set [5] (compound A with Histidine), 7.6; in data set [5] (compound A with Hydrochloric acid), 2.0. For the same compound, the “pH of saturated solution” value in data set [5] (compound A with Isoleucine) amounted to 6.4; in data set [5] (compound A with L-cysteine), 6.2; in data set [5] (compound A with L-valine), 6.4; in data set [5] (compound A with Malic acid), 3.4; in data set [5] (compound A with Methionine) it was 6.4; in data set [5] (compound A with Oxalic acid), 4.2. Also, the “pH of saturated solution” value in data set [5] (compound A with Succinic acid) is reported as 4.0; in data set [5] (compound A with Threonine) it was 6.3. Moreover, the solubility at 4 h in data set [5] (with Alanine) was found to be 1300 µg/mL (≈ 3.49 mM); in data set [5] (with Arginine), 8200 µg/mL (≈ 22 mM); in data set [5] (with Asparagine) it was 2100 µg/mL (≈ 5.64 mM); in data set [5] (with Aspartic acid), 37600 µg/mL (≈ 101 mM); in data set [5] (with Cinnamic acid), 2100 µg/mL (≈ 5.64 mM); in data set [5] (with Galacturonic (acid)), 18300 µg/mL (≈ 49.1 mM). The solubility at 4 h in data set [5] (with Gluconic acid lactone) worked out at 28100 µg/mL (≈ 75.5 mM); in data set [5] (with Gluconic acid), 33400 µg/mL (≈ 89.7 mM); in data set [5] (with Glutamine) it was 1600 µg/mL (≈ 4.3 mM); in data set [5] (with Glutaric acid) it was 12100 µg/mL (≈ 32.5 mM); in data set [5] (with Histidine) it was 2100 µg/mL (≈ 5.64 mM); in data set [5] (with Hydrochloric acid) it was 44300 µg/mL (≈ 119 mM). Also, the solubility at 4 h in data set [5] (with Isoleucine) was determined as 1400 µg/mL (≈ 3.76 mM); in data set [5] (with L-cysteine), 2300 µg/mL (≈ 6.18 mM); in data set [5] (with L-valine), 1300 µg/mL (≈ 3.49 mM); in data set [5] (with Malic acid), 48700 µg/mL (≈ 131 mM); in data set [5] (with Methionine), 1500 µg/mL (≈ 4.03 mM); in data set [5] (with Oxalic acid) it was 3500 µg/mL (≈ 9.4 mM). For the same compound, the values for the solubility at 4 h in data set [5] (with Succinic acid) and in data set [5] (with Threonine) were 47600 µg/mL (≈ 128 mM) and 1500 µg/mL (≈ 4.03 mM), respectively. In addition, the “solubility of compound A / pH of the resulting solution (in words)” value in data set [5] (with glutaric acid, cinnamic acid, galacturonic acid, glutamine, isoleusine, threonine, histidine, L-cysteine, alanine, arginine, L-valine, methionine or oxaline) is “did not substantilly improve the solubility of compound A or the pH of the resulting solution is unsuitable as injection and/or infusion solutions”.
